Reference: US10344330B2, “Glatiramer acetate response biomarker mRNA potency assay” (Mylan Inc., priority 2013, dated 2019)

B1: MBP: myelin basic protein, a negative control (protein, UniProt P02686 1-304, looked up)
Myelin basic protein: MGNHAGKRELNAEKASTNSETNRGESEKKRNLGELSRTTSEDNEVFGEADANQNNGTSSQDTAVTDSKRTADPKNAWQDAHPADPGSRPHLIRLFSRDAPGREDNTFKDRPSESDELQTIQEDSAATSESLDVMASQKRPSQRHGSKYLATASTMDHARHGFLPRHRDTGILDSIGRFFGGDRGAPKRGSGKDSHHPARTAHYGSLPQKSHGRTQDENPVVHFFKNIVTPRTPPPSQGKGRGLSLSRFSWGAEGQRPGFGYGGRASDYKSAHKGFKGVDAQGTLSKIFKLGGRDSRSGSPMARR

Legend:
Format in all cases: cell-based, mouse
[1] = system: KC (CXCL1) secreted by LN cells; assay: KC (CXCL1) secretion by GA-stimulated LN cells, MSD 9-plex ELISA (Example II); conditions: for KC secretion response ratio (treated cell medium to control DCCM1 medium): 21 hr
[2] = system: IL-2 mRNA in LN cells; assay: IL-2 mRNA by real-time PCR in LN cells of GA-immunized CD-1, BALB/cByJ, SJL/J mice (Example III); conditions: 6 hours
Description: On Day 0, mice were immunized with 250 μg GA (GMA, Mylan Pharmaceuticals, Inc.) and CFA. The GA solution (20 mg/mL) was diluted with Dulbecco's Phosphate-Buffered Saline to 5 mg/mL. The dosing formulation consisted of equal volumes of the diluted GA solution (5 mg/mL) and CFA solution, mixed until well-emulsified. Animals were weighed and allocated to groups. Animals were dosed by injection into four footpads. The injection volume per animal was 0.1 mL (about 10 μL into each front footpad, and 40 μL into each hind footpad).
Immunized animals were euthanized by cervical dislocation on Day 10 post-immunization. Lymph node cells were isolated from animals and treated with Myelin Basic Protein (MBP, a negative control), Concanavalin A (ConA, a positive control) or GA as shown in Table 16. Lymph nodes in the axillary and popliteal regions were removed aseptically in a purifier clean bench. […] The LN were then washed 3 times with −5 mL of RPMI medium, and isolated by pressing the LN with a syringe plunger. […] The cell suspension was centrifuged at about 200×g for 10 minutes at about 4° C. and re-suspended in ice cold enriched DCCM-1 medium. Cells were seeded in 96-well tissue culture plates.
LN cells isolated from GA-immunized animals were stimulated with GA (GMA, Mylan Pharmaceuticals, Inc.) at concentrations as indicated in Tables 16 and 17. A positive control was prepared by treating LN cells with 2.5 μg/mL concavalin A (ConA, a non-specific T cell stimulant). Myelin basic protein (MBP, 10 μg/mL) and enriched DCCM-1 medium served as negative controls. The cells from all groups each were stimulated with the same GA lot. Each reaction was set up in triplicate.
After incubation at about 37° C. in a humidified CO2 incubator for 6 hours, the cells were lysed for total RNA isolation. Total RNA was isolated from treated LN cells using SV 96 Total RNA Isolation System according to the manufacturer's protocol (Promega, Cat. #Z3500). Cells were washed once with Phosphate Buffered Saline (PBS) and lysed in RNA lysis buffer. The lysate was transferred to wells of the SV 96 binding plate. Samples were washed with RNA wash solution and treated with DNase. Total RNA was eluted with nuclease-free water from the binding plate.
After the reverse transcriptase reaction was completed, cDNA samples were used directly for real-time PCR to measure the response biomarker mRNA levels produced by the stimulated cells. […] All probes for target genes contained FAM dye, and probes for the internal control contained VIC®/MGB dye. Samples will be prepared and run in 96-well plates using a Real-Time PCR system (7500, Life Technologies). This system allows direct detection of PCR-product formation by measuring the increase in fluorescent emission continuously during the PCR reaction. A relative quantitation method was used to analyze changes in mouse IL-2, IL-4, IL-5, IL-10, IL-13, IFN-γ and TNF-α expression in GA-treated samples relative to the untreated control (enriched DCCM-1 treated) samples. The Real-Time PCR program was:
The levels of mouse cytokine amplicons (IL-2, IL-4, IL-5, IL-10, IL-13, mIFN-γ and TNF-α) were normalized to internal probe levels (GAPDH) from the same samples. The following equations were used to calculate the relative increase in response to GA stimulation compared to the control sample: ΔCT=CT_target−CT_reference ΔΔCT=−ΔCT_Treated−CT_VC

[3] = system: IL-4 secreted by LN cells; assay: IL-4 secretion by GA-stimulated LN cells, MSD 9-plex ELISA (Example II); conditions: for IL-4 secretion response ratio (treated cell medium to control DCCM1 medium): 21 hr
Description: (§1) Animals at 8 weeks of age were immunized by injection into four footpads using a 1 mL syringe with a 27-G, 1⁄2-inch needle. […] Ten days post-immunization, immunized animals were sacrificed via cervical dislocation. […] The LN cells were isolated by pressing the LN with the plunger end of a sterile syringe. […] Trypan blue exclusion method was used to determine the cell density of viable cells in the suspension. […] Cat. […] LN cells were plated into a 24-well tissue culture plate for drug stimulation. […] Cell debris was removed by centrifugation at ca. 200×g for 10 minutes at 4° C. Cytokines secreted by treated cells were determined on the day of collection by ELISA using mouse TH 1/TH 2 9-Plex Tissue Culture Kit (Meso Scale Discovery; Cat No. […]-2, Lot #: K0032839) which detects Th1 cytokines (IFN-γ, IL-2, IL-12, IL-1β, TNF-α, CXCL1) and Th2 cytokines (IL-4, IL-5 and IL-10). For IFN-γ, culture media also were assayed at 45 hours using mouse IFN-γ Tissue Culture Kit (Meso Scale Discovery; Cat No. […] For the positive control, 0.5 mL of LN cells (5×10^6 cells/well) were treated with 0.5 mL of ConA (5 μg/mL). For the negative control, 0.5 mL of LN cells (5×10^6 cells/well) were treated with 0.5 mL of MBP (20 μg/mL). The LN cells with mock stimulation (enriched DCCM1 medium) were used to monitor the background level of a cytokine. For the cytokine assays, calibration standards or samples were incubated in the MULTI-SPOT or the SINGLE-SPOT plate and each cytokine bound to its corresponding capture antibody. All test samples were run in duplicate. The amount of each cytokine on its distinct spot was quantified using a cytokine-specific detection antibody labeled with MSD SULFO-TAGTM reagent. Electrochemiluminescent signals from immobilized SULFO-TAGTM-labeled complexes on each spot from each well were captured by the MSD SECTOR Imager 6000, which produces a signal directly proportional to the amount of captured cytokine in a test sample. The levels of cytokines in test samples were derived by interpolation from calibration curves with calibration standards of known concentrations using reagents provided with the MSD kits. Kits were used according to the manufacturer's protocols. […] Data are expressed as a response ratio of cytokine concentration in treated cell medium to control DCCM1 medium.

[4] = system: TNF-α secreted by LN cells; assay: TNF-α secretion by GA-stimulated LN cells, MSD 9-plex ELISA (Example II); conditions: for TNF-α secretion response ratio (treated cell medium to control DCCM1 medium): 21 hr
Description: as §1

[5] = cells from any of the three mouse strains
[6] = Group 1C: CD-1, GA-immunized, stimulation 10 μg/mL
[7] = Group 2C: BALB/cByJ, GA-immunized, stimulation 10 μg/mL
[8] = Group 3C: SJL/J, GA-immunized, stimulation 10 μg/mL
[9] = BALB/cByJ, immunized GA Lower Limb
[10] = C57BL10J, immunized GA Intraplantar
[11] = C57BL10J, immunized GA Lower Limb
[12] = BALB/cByJ, immunized GA Intraplantar
[13] = BALB/cByJ, immunized Mannitol Intraplantar
[14] = C57BL10J, immunized Mannitol Intraplantar
[15] = CD-1, immunized GA Intraplantar
[16] = CD-1, immunized Mannitol Intraplantar

Row | Molecule | IL-2 mRNA Expression [2, 6] [fold change vs control] | IL-2 mRNA Expression [2, 7] [fold change vs control] | IL-2 mRNA Expression [2, 8] [fold change vs control] | KC secretion response ratio (treated cell medium to control DCCM1 medium) [1, 9] | KC secretion response ratio (treated cell medium to control DCCM1 medium) [1, 10] | KC secretion response ratio (treated cell medium to control DCCM1 medium) [1, 11] | KC secretion response ratio (treated cell medium to control DCCM1 medium) ([1]; CD-1, immunized GA Lower Limb) | IL-4 secretion response ratio (treated cell medium to control DCCM1 medium) [3, 12] | IL-4 secretion response ratio (treated cell medium to control DCCM1 medium) [3, 9] | IL-4 secretion response ratio (treated cell medium to control DCCM1 medium) [3, 13] | IL-4 secretion response ratio (treated cell medium to control DCCM1 medium) [3, 10] | IL-4 secretion response ratio (treated cell medium to control DCCM1 medium) [3, 11] | IL-4 secretion response ratio (treated cell medium to control DCCM1 medium) [3, 14] | IL-4 secretion response ratio (treated cell medium to control DCCM1 medium) [3, 15] | IL-4 secretion response ratio (treated cell medium to control DCCM1 medium) ([3]; CD-1, immunized GA Lower Limb) | IL-4 secretion response ratio (treated cell medium to control DCCM1 medium) [3, 16] | TNF-α secretion response ratio (treated cell medium to control DCCM1 medium) [4, 12] | TNF-α secretion response ratio (treated cell medium to control DCCM1 medium) [4, 9] | TNF-α secretion response ratio (treated cell medium to control DCCM1 medium) [4, 13] | TNF-α secretion response ratio (treated cell medium to control DCCM1 medium) [4, 10] | other results
1 | L-glutamic acid polymer with L-alanine, L-lysine and L-tyrosine, acetate (salt) [GA] | 4.3 | 38.0 | 22.0 |  |  |  |  |  |  |  |  |  |  |  |  |  |  |  |  |  | KC secretion, dose response to GA (in words) [1, 5]: No dose response; IL-2 mRNA Expression ([2]; Group 1C: CD-1, GA-immunized, stimulation 0.3 μg/mL): 1.0 fold change vs control; IL-2 mRNA Expression ([2]; Group 1C: CD-1, GA-immunized, stimulation 1 μg/mL): 1.6 fold change vs control; IL-2 mRNA Expression ([2]; Group 1C: CD-1, GA-immunized, stimulation 3 μg/mL): 2.9 fold change vs control; IL-2 mRNA Expression ([2]; Group 2C: BALB/cByJ, GA-immunized, stimulation 0.3 μg/mL): 4.0 fold change vs control; IL-2 mRNA Expression ([2]; Group 2C: BALB/cByJ, GA-immunized, stimulation 1 μg/mL): 11.7 fold change vs control; IL-2 mRNA Expression ([2]; Group 2C: BALB/cByJ, GA-immunized, stimulation 3 μg/mL): 27.4 fold change vs control; IL-2 mRNA Expression ([2]; Group 3C: SJL/J, GA-immunized, stimulation 0.3 μg/mL): 1.3 fold change vs control; IL-2 mRNA Expression ([2]; Group 3C: SJL/J, GA-immunized, stimulation 1 μg/mL): 4.7 fold change vs control; IL-2 mRNA Expression ([2]; Group 3C: SJL/J, GA-immunized, stimulation 3 μg/mL): 11.0 fold change vs control; IL-4 secretion, dose response to GA (in words) ([3]; BALB/cByJ cells): dose-dependent manner; TNF-α secretion, dose response to GA (in words) [4, 5]: No dose response
2 | Concanavalin A [ConA, reference compound] |  |  |  | 0.90 | 1.55 | 1.28 | 1.65 | 46.47 | 75.33 | 24.71 | 3.26 | 4.85 | 3.14 | 9.86 | 4.91 | 3.36 | 27.69 | 10.87 | 11.61 | 2.53 | IL-2 mRNA Expression ([2]; Group 1C: CD-1, GA-immunized, stimulation 2.5 μg/mL): 17.1 fold change vs control; IL-2 mRNA Expression ([2]; Group 2C: BALB/cByJ, GA-immunized, stimulation 2.5 μg/mL): 231.7 fold change vs control; IL-2 mRNA Expression ([2]; Group 3C: SJL/J, GA-immunized, stimulation 2.5 μg/mL): 61.9 fold change vs control; TNF-α secretion response ratio (treated cell medium to control DCCM1 medium) [4, 11]: 2.02; TNF-α secretion response ratio (treated cell medium to control DCCM1 medium) [4, 14]: 2.10; TNF-α secretion response ratio (treated cell medium to control DCCM1 medium) [4, 15]: 17.59; TNF-α secretion response ratio (treated cell medium to control DCCM1 medium) ([4]; CD-1, immunized GA Lower Limb): 9.79; TNF-α secretion response ratio (treated cell medium to control DCCM1 medium) [4, 16]: 23.88
3 | B1 | 0.9 | 2.7 | 0.5 | 1.02 | 1.00 | 1.04 | 1.08 | 0.99 | 1.05 | 1.50 | 1.09 | 1.14 | 1.03 | 0.99 | 0.94 | 1.21 | 0.98 | 1.07 | 1.10 | 1.03 | TNF-α secretion response ratio (treated cell medium to control DCCM1 medium) [4, 11]: 1.04; TNF-α secretion response ratio (treated cell medium to control DCCM1 medium) [4, 14]: 1.01; TNF-α secretion response ratio (treated cell medium to control DCCM1 medium) [4, 15]: 1.34; TNF-α secretion response ratio (treated cell medium to control DCCM1 medium) ([4]; CD-1, immunized GA Lower Limb): 1.54; TNF-α secretion response ratio (treated cell medium to control DCCM1 medium) [4, 16]: 1.51
